Experimental data reported in patent US10391196B2, “Prefabricated alginate-drug bandages” (President and Fellows of Harvard College, priority 2013, dated 2019).
“Also recorded” adds a separate entry of the source.

How the values were obtained:
[1] = Substance P release from alginate bandage sheets in PBS, measured by ELISA; format: physicochemical; conditions: 2% (w/v) and 4% (w/v) bandaging sheets; 8 mm diameter, 2 mm thick sample in 2 mls PBS
Method: The release was performed by placing the bandage sample of 8 mm diameter and 2 mm thickness in 2 mls of PBS and moving it to a new solution at defined time intervals. The release was examined using a commercially available ELISA assay. […] The sheets incorporate either 32 μg or 64 μg of Substance P with a given processing loss (Sample size n=3 per time point). Small molecule compounds (less than 1000 daltons) are typically added to the composition in a volume of 250 μl for a dressing that is about 12 mm in diameter and 2 mm thick. Thus, substance P was added at 128 μg/ml at the low concentration and 256 μg/ml at the higher concentration. Actual clinical doses are the same or similar. Since small molecules may diffuse out of the dressing quickly, it is advantageous for small molecules to have an affinity for the alginate, e.g., since alginate is negatively charged, positively charged small molecule drugs elute at a clinically acceptable and beneficial rate (and consistent with standard practice for changing of wound dressings). For example, substance P is slightly positively charged and is therefore attracted to the alginate. Charge is less or not relevant for larger molecules, e.g., BSA. Generally, the dose is determined based on the therapeutic dose of the drug. For example, VEGF is administered to the dressing at about 50 μg/ml (3 μg in 60 μl of liquid).

[2] = Release of model drugs from 4% (w/v) alginate pieces; format: physicochemical; conditions: 4% (w/v) alginate pieces 8 mm diameter, 2 mm thick, cross-linked 15 minutes
Method: Drug release was recorded for 4% (w/v) alginate pieces 8 mm in diameter and 2 mm in thickness that were cross-linked for 15 minutes. […] (Sample size of study n=3 per time point).

Compound	duration of sustained release of the peptide from the bandage [1]	loss during wetting step [2] [%]	release profile from the alginate dressing material [2]
Arg-Pro-Lys-Pro-Gln-Gln-Phe-Phe-Gly-Leu-Met [Substance P]	at least 3 days		
Cc1cc(-c2ccc(/N=N/c3c(S(=O)(=O)O)cc4cc(S(=O)(=O)O)cc(N)c4c3O)c(C)c2)ccc1/N=N/c1c(S(=O)(=O)O)cc2cc(S(=O)(=O)O)cc(N)c2c1O [trypan blue dye, Trypan blue]		24	lost very rapidly; also recorded: the majority within one day
O=C1c2c(O)ccc(O)c2C(=O)c2c(NCCNCCO)ccc(NCCNCCO)c21 [mitoxantrone, Mitoxantrone]			sustained release from the scaffold, which is still ongoing at the termination of the experiment
